Test [1] relates to mice exposed to total body irradiation. Briefly: Survival of mice after total body irradiation. The class given is in vivo, mouse. The procedure:
Mice received intraperitoneal injection of 10 mg. per kilogram of each of the chemicals indicated in FIG. 5, then 24 hours later received 9.75 Gy total body irradiation according to published methods. Mice were followed for survival according to IACUC regulations. […] (P=0.0008).
Groups of 15 mice received intraperitoneal injection of 10 mg. per kilogram of each indicated GS-nitroxide compound or carrier (Cremphora plus alcohol at 1 to 1 ratio, then diluted 1 to 10 in distilled water). Mice received 10 mg per kilogram intra-peritoneal injection 24 hours prior to total body irradiation. Control mice received radiation alone. […] (P=0.0005)

The test system of test [2] is NOD/SCID mice. Briefly: Proposed: human marrow stromal cell seeding into irradiated limbs of NOD/SCID mice. The class given is in vivo, mouse. The conditions noted are these: MnSOD-PL prior to cell infusion; JP4-039 daily after cell transplantation. The source says: The following can be used to select and optimize the best GS-nitroxide JP4-039 (radiation damage mitigator drug) that can enhance human bone marrow stromal cell and fresh human stromal cell line seeding efficiency into irradiated limbs of NOD/SCID mice. MnSOD-overexpressing cells are a positive control.
A. Experiments with KM101-MnSOD/ds-red (control KM101-ds-red) clonal cell lines. Groups of 12 NOD/SCID mice receive 300 cGy total body irradiation (low dose leg) and a 1000 cGy boost to the left hind leg (high dose leg), then 24 hours later intravenous injection of 1×10^5 or 1×10^6 cells of each cell line (groups 1 and 2). Group 3 is mice that receive MnSOD-PL intravenously 24 hours prior to irradiation and then injection of KM101-MnSOD/ds-red. […] This experiment may be conducted essentially as described above (A), with all groups, but with a sub-group receiving JP4-039 (24 hours) after radiation (same day as cell lines are injected, or a sub-group receiving intraperitoneal JP4-039 (daily or weekly after cell line transplantation). Cells may be explanted from the high dose and low dose irradiated femurs at days 7, 14, 21, and cultured in vitro for human stromal colony forming progenitor cells (CFU-F). The percent and total number of human cells entering the high dose and low dose irradiated limbs can be quantitated by cell sorting for ds-red. […]

Test [3] has as its system NOD/SCID mice. Description: Proposed: human CD34+ cord blood stem cell seeding into irradiated limbs of NOD/SCID mice. To be noted: mouse, in vivo. The source says:
Selection and optimization of a GS-nitroxide JP4-039 therapy to enhance human CD34+ cord blood multilineage hematopoietic stem cell progenitor cell seeding into irradiated limbs of NOD/SCID mice that have been prepared by engraftment of human marrow stromal cells.
2. Experiments using the optimal seeding protocol for human KM101 cells into irradiated NOD/SCID mice (anticipated to be those mice receiving MnSOD-PL prior to irradiation, and then injection with KM101-MnSOD/ds-red, supplemented with JP4-039 daily). Mice can then receive intravenous injection of 1×10^5 or 1×10^6 CD34+ LIN− cells from human umbilical cord blood origin. Control cells may be CD34+ LIN+ (differentiated progenitor) cells 10^5 or 10^6 per injection. Groups of 12 mice. These experiments may be carried out in two schedules. • a. […]
In these experiments, mice can be followed and tested at serial time points out to two months after cord blood stem cell transplantation. The percent of human peripheral blood hematopoietic cells can be scored in weekly peripheral blood samples and number of cells forming CFU-GEMM colonies can be tested in explanted bones from sacrificed mice. […]
Experiments in vitro supplementing in co-cultivation culture media the drug JP4-039 daily. […] Stromal cell cultures may be irradiated, cord blood cells added, and cultures scored as above. […]

For test [4], the system named is mouse embryonic cells (MEC). Description: ActD-induced apoptosis in MECs (PS externalization, caspase-3, DNA fragmentation). The class given is cell-based. The source says: Cells that annexin V-positive and PI-negative were considered apoptotic.

Where a SMILES comes first, the peptide text is derived from it. [ ]: non-standard residue; d: D form. The star is where a group is joined. NH(TEMPO-4-yl) = CC1(C)CC(N*)CC(C)(C)N1[O]; Orn = NCCC[C@H](N)C(=O)O; Cbz = O=C(OCc1ccccc1)*; Boc = CC(C)(C)OC(=O)*

Take `CC(C)C[C@@H](/C=C/CC(=O)NC1CC(C)(C)N([O])C(C)(C)C1)NC(=O)OC(C)(C)C` [JP4-039, (S,E)-5-(tert-Butoxycarbonylamino)-7-methyloct-3-enoic acid-TEMPO]: the “survival of mice exposed to 9.75 Gy total body irradiation” value in test [1] (10 mg per kilogram intraperitoneal 24 hours before irradiation) was “significant increase in survival”. Besides, the “survival of mice exposed to 9.5 Gy total body irradiation” value in test [1] (10 mg per kilogram intraperitoneal 24 hours prior to irradiation) was “increases survival”. The “engraftment of KM101 stromal cell lines” value with NOD/SCID mice [2] is reported as “facilitate improved stability of engraftment”. Also, the “hematopoietic cell survival and CFU-GEMM numbers” value in the test with NOD/SCID mice [3] is “further enhance hematopoietic cell survival and increase CFU-GEMM in numbers”.

For the compound `CC(C)C[C@H](NC(=O)OC(C)(C)C)C(=O)N[C@H](Cc1ccccc1)C(=O)N1CCC[C@H]1C(=O)N[C@H](C(=O)N[C@@H](CCCNC(=O)OCc1ccccc1)C(=O)NC1CC(C)(C)N([O])C(C)(C)C1)C(C)C` [XJB-5-125] (Boc-L[dF]PV[Orn](Cbz)-{NH(TEMPO-4-yl)}), in test [4], the “concentration range of activity in cells (dose-dependent attenuation of ActD-induced PS externalization)” value was in the range of 2.5 to 20 µM.

These data come from US8748369B2, “Use of targeted nitroxide agents in bone healing” (University of Pittsburgh-Of the Commonwealth System of …, priority 2009, dated 2014).
